Laboratory results: patent publication US20220395464A1, “ORALLY ADMINISTERED SOLID DOSAGE FORM DRUG” (ASCENTAWITS PHARMACEUTICALS, LTD., priority 2019, published 2022)
pIC50: −log10 of the molar value. Entries after “also recorded” stand apart in the source; their conditions may differ. Each block holds one compound with its values, some of them ahead of it.

Assays:
[1] = Solubility study of AST-3424 (shaking at 25° C., HPLC content); format: physicochemical; conditions: methanol, propanol, butanol, ethylene glycol, propylene glycol, glycerol, 1,3-butanediol, 1,2-butanediol; initial investigation
[2] = Solution stability study of AST-3424 in different solutions (HPLC content); format: physicochemical; conditions: for Time the API is stable in solution / Content: room temperature
Experimental: 1.3 Solution Stability Study
About 107.32 mg of AST-3424 (50% v/v, ethanol) was taken and placed in a 50 ml-measuring flask. Then, solvents which are an organic solvent, buffer solution or purified water, were respectively added to a scale mark. At each appointed time, 1 ml of samples was measured for HPLC analysis respectively. If the API was stable in the solution with the different pH values, a sampling appointed time was extended, for instance 5 days or more.
In the solubility study, for a determination of sample contents, 1 ml of culture medium were measured respectively, and then centrifuged at 1000 rpm for 10 minutes. Subnatant after centrifugation were collected respectively for HPLC analysis. In the solution stability study, the samples may be provided directly for HPLC analysis.
The contents were determined by a HPLC method: AST-3424 was used as an external standard for quantification.
A wavelength of UVDAD detector was 230 nm. C18 column was used at a temperature of 25° C.

[3] = tested on: H460 non-small cell lung cancer; experiment: In vitro proliferation inhibition assay, 2 h exposure, Alamar Blue, with or without AKR1C3 inhibitor TH3021; format: cell-based, human; conditions: for pIC50: 2 h exposure, 70 h further incubation
Experimental: The activities of the compounds were evaluated by a proliferation inhibition assay of active cancer cells in vitro.
In vitro proliferation data for a human tumor cell line of H460 non-small cell lung cancer were reported in a Table of compounds below.
IC50 values were in nanomoles and were obtained by the following procedure. Cells were exposed in the compounds with different concentration for 2 hours. Next, the compounds were washed off, and fresh medium was added into plates. Afterwards, a growth rate and a cell-survival rate were obtained by cell staining and compared with a control treated with the medium only.
Specifically speaking, the exponentially growing cells were seeded in 96-well plates at a density of 4×10^3 cells/well, and incubated for 24 hours at 37° C. in 5% CO2, 95% air and 100% relative humidity. Next, the compounds were added. Complementary, the compounds were dissolved in 100% DMSO at 200 times a desired final test concentration. The compounds were further diluted to 4 times the desired final test concentration with complete medium when the drug was added. A 50 μl aliquot of drug with the specific concentrations of the compounds was added to the 96-well plates already containing 150 μl of medium respectively to get the final test concentration reported. After the drug was added, the 96-well plates were incubated for 2 hours at 37° C. in 5% CO2, 95% air and 100% relative humidity. Then, the drug was washed off, and the 96-well plates were incubated for 70 hours at 37° C. in 5% CO2, 95% air and 100% relative humidity after adding the fresh medium. At the end of this incubation, Alamar Blue assay was used to quantify viable cells. The concentrations of the drug causing 50% growth inhibition (IC50) were calculated using computer software, and results are presented in a table below.
A cancer cell proliferation activity of the compounds with or without AKR1C3 enzyme inhibition was measured with and without adding TH3021 (with a sufficient inhibitory concentration), an inhibitor of AKR1C3.

SMILES: C[C@H](OP(=O)(N1CC1)N1CC1)c1ccc([N+](=O)[O-])c(Oc2cccc(C(=O)N(C)C)c2)c1 [AST-3424, (S)-1-(3-(3-N,N-Dimethylaminocarbonyl)phenoxy-4-nitrophenyl)-1-ethyl-N,N′-bis(ethylene) phosphoramidate]
- Solubility, in words [1]: good solubility
- Time the API is stable in solution ([2]; 1:1 solution of ethanol and propylene glycol): at least 72 hours
- Content ([2]; Acetate buffer of pH 4.5, 0 h): 0.673 mg/mL
- Content ([2]; Acetate buffer of pH 4.5, 1 h): 0.413 mg/mL
- Content ([2]; Acetate buffer of pH 4.5, 4 h): 0.218 mg/mL
- Content ([2]; Acetate buffer of pH 4.5, 8 h): 0.093 mg/mL
- Content ([2]; Acetate buffer of pH 4.5, 24 h): 0.013 mg/mL
- Content ([2]; Alkaline borate buffer of pH 10.0, 0 h): 1.265 mg/mL
- Content ([2]; Alkaline borate buffer of pH 10.0, 1 h): 1.165 mg/mL
- Content ([2]; Alkaline borate buffer of pH 10.0, 4 h): 1.261 mg/mL
- Content ([2]; Alkaline borate buffer of pH 10.0, 8 h): 1.258 mg/mL
- Content ([2]; Alkaline borate buffer of pH 10.0, 24 h): 1.261 mg/mL
- Content ([2]; Alkaline borate buffer of pH 10.0, 48 h): 1.257 mg/mL
- Content ([2]; Alkaline borate buffer of pH 10.0, 72 h): 1.242 mg/mL
- Content ([2]; Ethanol/Propylene glycol (50:50, v/v), 0 h): 1.295 mg/mL
- Content ([2]; Ethanol/Propylene glycol (50:50, v/v), 1 h): 1.287 mg/mL
- Content ([2]; Ethanol/Propylene glycol (50:50, v/v), 4 h): 1.287 mg/mL
- Content ([2]; Ethanol/Propylene glycol (50:50, v/v), 8 h): 1.287 mg/mL
- Content ([2]; Ethanol/Propylene glycol (50:50, v/v), 24 h): 1.302 mg/mL
- Content ([2]; Ethanol/Propylene glycol (50:50, v/v), 48 h): 1.284 mg/mL
- Content ([2]; Ethanol/Propylene glycol (50:50, v/v), 72 h): 1.275 mg/mL
- Content ([2]; Ethanol, 0 h): 1.238 mg/mL
- Content ([2]; Ethanol, 1 h): 1.280 mg/mL
- Content ([2]; Ethanol, 4 h): 1.246 mg/mL
- Content ([2]; Ethanol, 8 h): 1.240 mg/mL
- Content ([2]; Ethanol, 24 h): 1.240 mg/mL
- Content ([2]; Ethanol, 48 h): 1.278 mg/mL
- Content ([2]; Ethanol, 72 h): 1.236 mg/mL
- Content ([2]; Phosphate buffer of pH 6.8, 0 h): 1.202 mg/mL
- Content ([2]; Phosphate buffer of pH 6.8, 1 h): 1.200 mg/mL
- Content ([2]; Phosphate buffer of pH 6.8, 4 h): 1.193 mg/mL
- Content ([2]; Phosphate buffer of pH 6.8, 8 h): 1.185 mg/mL
- Content ([2]; Phosphate buffer of pH 6.8, 24 h): 1.168 mg/mL
- Content ([2]; Phosphate buffer of pH 6.8, 48 h): 1.145 mg/mL
- Content ([2]; Phosphate buffer of pH 6.8, 72 h): 1.102 mg/mL
- Content ([2]; Phosphate buffer of pH 7.4, 0 h): 1.267 mg/mL
- Content ([2]; Phosphate buffer of pH 7.4, 1 h): 1.266 mg/mL
- Content ([2]; Phosphate buffer of pH 7.4, 4 h): 1.266 mg/mL
- Content ([2]; Phosphate buffer of pH 7.4, 8 h): 1.262 mg/mL
- Content ([2]; Phosphate buffer of pH 7.4, 24 h): 1.262 mg/mL
- Content ([2]; Phosphate buffer of pH 7.4, 48 h): 1.249 mg/mL
- Content ([2]; Phosphate buffer of pH 7.4, 72 h): 1.228 mg/mL
- Content ([2]; Purified water, 0 h): 1.186 mg/mL
- Content ([2]; Purified water, 1 h): 1.126 mg/mL
- Content ([2]; Purified water, 4 h): 1.056 mg/mL
- Content ([2]; Purified water, 8 h): 1.005 mg/mL
- Content ([2]; Purified water, 24 h): 0.918 mg/mL
- Content ([2]; Purified water, 48 h): 0.860 mg/mL
- Content ([2]; Purified water, 72 h): 0.810 mg/mL
- Solution stability, in words ([2]; acetate buffer of pH 4.5): unstable; also recorded: very unstable
- Time the API is stable in solution ([2]; buffer of pH 7.4): at least 72 hours
- Time the API is stable in solution ([2]; buffer of pH 10.0): at least 72 hours
- Time the API is stable in solution ([2]; ethanol): at least 72 hours
- Solution stability, in words ([2]; phosphate buffer of pH 6.8): unstable; also recorded: less stable
- Solution stability, in words ([2]; phosphate buffer of pH 7.4): stable
- Solution stability, in words ([2]; purified water): unstable; also recorded: less stable
- Time the API is stable in solution ([2]; solution of pH 6.8): at least 24 hours

- pIC50 ([3]; H460, + TH3021 (inhibitor of AKR1C3)): 6.78
- pIC50 ([3]; Homo sapiens, NCI-H460, H460, + TH3021 (inhibitor of AKR1C3)): 6.96
- pIC50 ([3]; Homo sapiens, NCI-H460, H460, without TH3021): > 8.34
SMILES: [2H]C([2H])([2H])N(C(=O)c1cccc(Oc2cc([C@H](C)OP(=O)(N3CC3)N3CC3)ccc2[N+](=O)[O-])c1)C([2H])([2H])[2H] [AST-3424-D6]
- In vitro activity compared with AST-3424, in words ([3]; H460, FIG. 1 and Table 12): similar
